According to EP4700027A1, “CRYSTALLINE FORM OF NITROGEN-CONTAINING TETRACYCLIC COMPOUND AND PREPARATION METHOD THEREFOR” (Jiangsu Hengrui Pharmaceuticals Co., Ltd., priority 2023, dated 2024):

Experiments:
[1] = Influencing factor stability study on crystal forms (light, high temperature, high humidity, 30 days); assay type: physicochemical
[2] = Dynamic vapor sorption (DVS) hygroscopicity testing; assay type: physicochemical; conditions: for desorption process of the sample versus its adsorption process: humidity changing from 0% to 95% RH
From the text: According to the description of hygroscopicity characteristics and the definitions of hygroscopic weight gains in "General Rule 9103, Guidelines for Hygroscopicity Trials for Pharmaceuticals" in the Chinese Pharmacopoeia, Volume IV, 2015 Edition, • deliquescent: sufficient water is absorbed to form a liquid; • extremely hygroscopic: the hygroscopic weight gain is not less than 15%; • hygroscopic: the hygroscopic weight gain is less than 15% but not less than 2%; • slightly hygroscopic: the hygroscopic weight gain is less than 2% but not less than 0.2%; nonhygroscopic or practically nonhygroscopic: the hygroscopic weight gain is less than 0.2%.
DVS refers to dynamic vapor sorption: The analysis was performed using SMS DVS Advantage; at 25 °C, the humidity was changed as follows: 50%-95%-0%-95%-50%, in steps of 10% (5% for the last step) (specific humidity ranges are shown in corresponding patterns, and those listed here were used in most cases); the criterion was dm/dt being not greater than 0.002%.

[3] = Light exposure (4500 Lux), 7 days
[4] = Light exposure (4500 Lux), 14 days
[5] = Light exposure (4500 Lux), 30 days
[6] = accelerated experimental conditions (70% RH)
[7] = normal storage conditions (25 °C and 60% RH)

C=CC(=O)N1CCN2C(=O)c3cc(F)c(-c4ccc(F)c5sc(N)c(C#N)c45)c4c(Cl)nn(c34)CC[C@H]2C1 [crystal form M]
Color and state ([1]; 40 °C, 7 days): Off-white solid
Crystal form ([1]; 40 °C, 7 days): Did not change
Purity (%) ([1]; 40 °C, 7 days): 99.1%
Color and state ([1]; 40 °C, 14 days): Off-white solid
Crystal form ([1]; 40 °C, 14 days): Did not change
Purity (%) ([1]; 40 °C, 14 days): 99.1%
Color and state ([1]; 40 °C, 30 days): Off-white solid
Crystal form ([1]; 40 °C, 30 days): Did not change
Purity (%) ([1]; 40 °C, 30 days): 98.9%
Color and state ([1]; 60 °C, 7 days): Off-white solid
Crystal form ([1]; 60 °C, 7 days): Did not change
Purity (%) ([1]; 60 °C, 7 days): 99.1%
Color and state ([1]; 60 °C, 14 days): Off-white solid
Crystal form ([1]; 60 °C, 14 days): Did not change
Purity (%) ([1]; 60 °C, 14 days): 99.1%
Color and state ([1]; 60 °C, 30 days): Off-white solid
Crystal form ([1]; 60 °C, 30 days): Did not change
Purity (%) ([1]; 60 °C, 30 days): 99.0%
Color and state ([1]; 75% RH, 7 days): Off-white solid
Crystal form ([1]; 75% RH, 7 days): Did not change
Purity (%) ([1]; 75% RH, 7 days): 99.2%
Color and state ([1]; 75% RH, 14 days): Off-white solid
Crystal form ([1]; 75% RH, 14 days): Did not change
Purity (%) ([1]; 75% RH, 14 days): 99.2%
Color and state ([1]; 75% RH, 30 days): Off-white solid
Crystal form ([1]; 75% RH, 30 days): Did not change
Purity (%) ([1]; 75% RH, 30 days): 99.2%
Color and state ([1]; 92.5% RH, 7 days): Off-white solid
Crystal form ([1]; 92.5% RH, 7 days): Did not change
Purity (%) ([1]; 92.5% RH, 7 days): 99.2%
Color and state ([1]; 92.5% RH, 14 days): Off-white solid
Crystal form ([1]; 92.5% RH, 14 days): Did not change
Purity (%) ([1]; 92.5% RH, 14 days): 99.2%
Color and state ([1]; 92.5% RH, 30 days): Off-white solid
Crystal form ([1]; 92.5% RH, 30 days): Did not change
Purity (%) ([1]; 92.5% RH, 30 days): 99.2%
Color and state ([1]; Initial, 0 days): Off-white solid
Crystal form ([1]; Initial, 0 days): Crystal form M
Purity (%) ([1]; Initial, 0 days): 99.2%
Color and state [1, 3]: Off-white solid
Crystal form [1, 3]: Did not change
Purity (%) [1, 3]: 99.2%
Color and state [1, 4]: Off-white solid
Crystal form [1, 4]: Did not change
Purity (%) [1, 4]: 99.2%
Color and state [1, 5]: Off-white solid
Crystal form [1, 5]: Did not change
Purity (%) [1, 5]: 99.0%
hygroscopic weight gain [2, 6]: about 0.55%
crystal form re-identified after DVS testing [2]: did not change
hygroscopic weight gain ([2]; extreme conditions (90% RH)): about 0.73%
desorption process of the sample versus its adsorption process [2]: substantially overlapped
hygroscopic weight gain [2, 7]: about 0.48%

C=CC(=O)N1CCN2C(=O)c3cc(F)c(-c4ccc(F)c5sc(N)c(C#N)c45)c4c(Cl)nn(c34)CC[C@H]2C1 [crystal form N]
Color and state ([1]; 60 °C, 30 days): Off-white solid
Crystal form ([1]; 60 °C, 30 days): Did not change
Purity (%) ([1]; 60 °C, 30 days): 98.9%
Color and state ([1]; 75% RH, 7 days): Off-white solid
Crystal form ([1]; 75% RH, 7 days): Did not change
Purity (%) ([1]; 75% RH, 7 days): 99.2%
Color and state ([1]; 75% RH, 14 days): Off-white solid
Crystal form ([1]; 75% RH, 14 days): Did not change
Purity (%) ([1]; 75% RH, 14 days): 99.1%
Color and state ([1]; 75% RH, 30 days): Off-white solid
Crystal form ([1]; 75% RH, 30 days): Did not change
Purity (%) ([1]; 75% RH, 30 days): 99.1%
hygroscopic weight gain [2, 6]: about 3.06%
crystal form re-identified after DVS testing [2]: did not change
hygroscopic weight gain ([2]; extreme conditions (90% RH)): about 3.18%
desorption process of the sample versus its adsorption process [2]: substantially overlapped
hygroscopic weight gain [2, 7]: about 3.00%
